# Source: US5200426A, “Inhibitors of neutral endopeptidase/CALLA as chemotherapeutic agents” (Board of Regents, The University of Texas, priority 1990, dated 1993)
# pKi: −log10 of the molar value. Entries after “also recorded” stand apart in the source; their conditions may differ. Square brackets hold non-standard residues; d marks the D form. Peptide text beside a SMILES is read from it. * marks the point of attachment. BrAc = O=C(CBr)*
# Experiments:
# [1] = biological target: neutral endopeptidase 24.11 (NEP); assay: Competitive inhibition of neutral endopeptidase (NEP); type: biochemical; settings: read-out: Ki (competitive inhibitor)
# From the text: (§1) The efficacy of endopeptidase inhibitors may be assessed by determining cell numbers and the percent of viable cells (e.g., assessed by trypan blue exclusion) as a function of time in culture in the presence and absence of the endopeptidase inhibitors. In addition the level of neutral endopeptidase activity will be measured and correlated with these parameters. Since the enzyme is on the cell surface its activity can be measured by simply adding substrate to the cell culture. The kinetics of inactivation of purified enzyme can also be assessed. A graphical analysis of the inactivation constant (kobs) versus the inhibitor concentration can be plotted. If the inhibitor binds to the active site of the enzyme this graph should be hyperbolic. The data can then be analyzed in a double reciprocal plot of 1/kobs versus 1/[Inhibitor]. This should yield a straight line from which the dissociation constant for the inhibitor (Ki) and the maximal rate of inactivation k(inact) can be obtained. […] This type of analysis has previously been conducted to characterize the reaction of both phenylglyoxal and N-bromoacetyl-D-Leu-Gly with the enzyme.
# NEP: glutaryl-Ala-Ala-Phe-MNA →glutaryl-Ala-Ala + Phe-MNA Aminopeptidase: Phe-MNA →Phe + MNA MNA =4-methoxy-2-naphthylamine
# [2] = system: neutral endopeptidase 24.11 (NEP); assay: Affinity labelling / irreversible inactivation of NEP; type: biochemical
# From the text: as §1
# [3] = system: Nalm-6 cells (CALLA+ human leukemic cell line); assay: Growth of Nalm-6 cells (viable cell counts daily); type: cell-based; settings: for growth of Nalm-6 cells: bolus or daily addition, FIG. 4; for growth of Nalm-6 cells in conditioned media: 50-50 mixture of fresh media and media from a five-day culture, FIG. 5; for cell growth of Nalm-6: nanomolar to micromolar concentrations, FIG. 1 and 3
# Procedure: FIG. 1--Effect of NEP Inhibitors on the Growth of Nalm-6, A2/3, and J558 Cell Lines. The two NEP inhibitors phosphoramidon (1 μM) and carboxyphenylethyl-Phe-β-Ala (20 μM) were added to cells plated in quadruplicate at a density of 100,000 cells/ml in 24 well microtiter plates. The number of viable cells was determined daily. FIG. 3--Correlation of Cell Growth with NEP Activity. Nalm-6 cells were treated with 10 nM phosphoramidon added either as a bolus (circles) or daily (triangles). Cells were initially plated at 200,000 cells/ml. Control cells without added inhibitor are shown as squares. Aliquots were taken daily for determining cell density. To the remainder of the sample was added glutaryl-[…] and NEP activity determined. […] Cells counts were conducted daily. FIG. 5--The Effect of NEP Inhibitors on Nalm-6 Cells Grown in Fresh or Conditioned Media. Nalm-6 cells were grown in fresh media or a 50--50 mixture of fresh media and media taken from a five-day culture. The pH of the conditioned media was adjusted to that of the fresh media. Cell counts were performed daily. The efficacy of endopeptidase inhibitors may be assessed by determining cell numbers and the percent of viable cells (e.g., assessed by trypan blue exclusion) as a function of time in culture in the presence and absence of the endopeptidase inhibitors. In addition the level of neutral endopeptidase activity will be measured and correlated with these parameters. Since the enzyme is on the cell surface its activity can be measured by simply adding substrate to the cell culture. The kinetics of inactivation of purified enzyme can also be assessed. A graphical analysis of the inactivation constant (kobs) versus the inhibitor concentration can be plotted. If the inhibitor binds to the active site of the enzyme this graph should be hyperbolic. The data can then be analyzed in a double reciprocal plot of 1/kobs versus 1/[Inhibitor]. This should yield a straight line from which the dissociation constant for the inhibitor (Ki) and the maximal rate of inactivation k(inact) can be obtained. […] This type of analysis has previously been conducted to characterize the reaction of both phenylglyoxal and N-bromoacetyl-D-Leu-Gly with the enzyme. […] Nalm-6 and Nall-1 are leukemic cell lines generally representative of CALLA+ lymphoblastic leukemias. […] The number of viable cells was determined daily. In FIG. 2, the NEP inhibitors phosphoramidon (PA;10 nM) and carboxyphenylethyl-Phe-β-Ala (10 μM) were added to Nall-1 and, in a separate experiment, to SMS-SB cells plated at a density of 200,000 cells/ml. The inhibitors were added either once on Day 0 as a bolus (closed circle and square) or daily (open circle or triangle). The number of viable cells was determined daily. The inhibition of cell growth by these NEP specific inhibitors appeared somewhat transient and correlated with the recovery of NEP activity. […] Control cells without added inhibitor are shown as squares. Cells were initially plated at a density of 200,000 cells/ml. Aliquots were taken daily for determining cell density. To the remainder of the sample was added glutaryl-[…] and NEP activity was determined.
# [4] = system: SMS-SB cells (CALLA- human leukemic cell line); assay: Growth of SMS-SB cells (viable cell counts daily); type: cell-based; settings: 10 μM, bolus or daily addition; FIG. 4
# Procedure: FIG. 2--Effect of NEP Inhibitors on the Growth of Nall-1 and SMS-SB Cell Lines. The NEP inhibitors phosphoramidon (10 nM) and carboxyphenylethyl-Phe-β-Ala(10 μM) were added to cells plated at a density of 200,000 cells/ml. The inhibitors were added either once on Day 0 as a bolus (closed circle and square) or daily (open circle or triangle). The number of viable cells was determined daily. […] Cells counts were conducted daily. […] Nalm-6 and Nall-1 are leukemic cell lines generally representative of CALLA+ lymphoblastic leukemias. […] The number of viable cells was determined daily. In FIG. 2, the NEP inhibitors phosphoramidon (PA;10 nM) and carboxyphenylethyl-Phe-β-Ala (10 μM) were added to Nall-1 and, in a separate experiment, to SMS-SB cells plated at a density of 200,000 cells/ml. The inhibitors were added either once on Day 0 as a bolus (closed circle and square) or daily (open circle or triangle). The number of viable cells was determined daily.
# [5] = system: Nall-1 cells (CALLA+ human leukemic cell line); assay: Growth of Nall-1 cells (viable cell counts daily); type: cell-based; settings: nanomolar to micromolar concentrations; FIG. 2
# Procedure: FIG. 2--Effect of NEP Inhibitors on the Growth of Nall-1 and SMS-SB Cell Lines. The NEP inhibitors phosphoramidon (10 nM) and carboxyphenylethyl-Phe-β-Ala(10 μM) were added to cells plated at a density of 200,000 cells/ml. The inhibitors were added either once on Day 0 as a bolus (closed circle and square) or daily (open circle or triangle). The number of viable cells was determined daily. […] Nalm-6 and Nall-1 are leukemic cell lines generally representative of CALLA+ lymphoblastic leukemias. […] The number of viable cells was determined daily. In FIG. 2, the NEP inhibitors phosphoramidon (PA;10 nM) and carboxyphenylethyl-Phe-β-Ala (10 μM) were added to Nall-1 and, in a separate experiment, to SMS-SB cells plated at a density of 200,000 cells/ml. The inhibitors were added either once on Day 0 as a bolus (closed circle and square) or daily (open circle or triangle). The number of viable cells was determined daily.
# [6] = biological target: T1, NEP (CALLA) on intact Nalm-6 cells (Homo sapiens, UniProt P08473); assay: NEP activity of intact cells (glutaryl-Ala-Ala-Phe-MNA substrate); type: cell-based
# T1 construct: NEP is a normal constituent of Nalm-6 cells; endogenous in cells; host or cells: Nalm-6 (human CALLA+ leukemic cell line)
# Procedure: FIG. 3--Correlation of Cell Growth with NEP Activity. Nalm-6 cells were treated with 10 nM phosphoramidon added either as a bolus (circles) or daily (triangles). Cells were initially plated at 200,000 cells/ml. Control cells without added inhibitor are shown as squares. Aliquots were taken daily for determining cell density. To the remainder of the sample was added glutaryl-[…] and NEP activity determined. The efficacy of endopeptidase inhibitors may be assessed by determining cell numbers and the percent of viable cells (e.g., assessed by trypan blue exclusion) as a function of time in culture in the presence and absence of the endopeptidase inhibitors. In addition the level of neutral endopeptidase activity will be measured and correlated with these parameters. Since the enzyme is on the cell surface its activity can be measured by simply adding substrate to the cell culture. The kinetics of inactivation of purified enzyme can also be assessed. A graphical analysis of the inactivation constant (kobs) versus the inhibitor concentration can be plotted. […] The data can then be analyzed in a double reciprocal plot of 1/kobs versus 1/[Inhibitor]. […] To the remainder of the sample was added glutaryl-[…] and NEP activity was determined. […] The NEP activity of intact cells in the presence of the inhibitors has been measured during the course of experiments similar to those shown in FIG. 1. […]
# L3 myoblast cell line = assay: L3 myoblast cell line, formation of myotubules; type: cell-based
# T1 sequence (P08473 whole entry): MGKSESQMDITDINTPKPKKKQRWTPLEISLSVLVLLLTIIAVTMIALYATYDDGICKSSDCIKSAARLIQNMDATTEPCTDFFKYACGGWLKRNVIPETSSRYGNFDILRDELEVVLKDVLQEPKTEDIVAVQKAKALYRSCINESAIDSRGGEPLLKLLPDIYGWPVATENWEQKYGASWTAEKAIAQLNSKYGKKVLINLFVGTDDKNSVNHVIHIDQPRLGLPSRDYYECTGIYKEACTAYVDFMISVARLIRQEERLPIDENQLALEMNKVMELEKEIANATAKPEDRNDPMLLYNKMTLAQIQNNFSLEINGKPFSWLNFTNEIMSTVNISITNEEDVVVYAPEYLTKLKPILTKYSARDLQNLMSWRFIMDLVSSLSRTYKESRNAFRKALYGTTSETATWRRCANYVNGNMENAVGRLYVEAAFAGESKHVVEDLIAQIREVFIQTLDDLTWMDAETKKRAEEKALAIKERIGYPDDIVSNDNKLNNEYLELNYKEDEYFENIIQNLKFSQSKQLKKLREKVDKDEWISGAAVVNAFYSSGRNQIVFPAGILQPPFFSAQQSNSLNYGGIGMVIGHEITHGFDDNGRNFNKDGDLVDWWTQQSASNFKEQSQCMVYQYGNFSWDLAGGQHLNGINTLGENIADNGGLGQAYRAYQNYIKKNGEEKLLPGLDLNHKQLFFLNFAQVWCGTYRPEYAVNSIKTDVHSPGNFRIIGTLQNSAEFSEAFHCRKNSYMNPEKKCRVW
Structure (SMILES),irreversible inhibition / affinity labelling of NEP [2],growth of Nalm-6 cells ([3]; 10 μM),growth of CALLA- SMS leukemic cell line [4],growth of Nalm-6 cells in conditioned media [3],cell growth of Nalm-6 [3],cell growth of Nall-1 [5],enzyme (NEP) activity in conditioned vs fresh media [6],further results
"CC(C)C[C@@H](NC(=O)CBr)C(=O)NCC(=O)O [BADLG, N-bromoacetyl-D-Leu-Gly] (BrAc-[dL]-Gly-OH)",irreversible inhibitor,,,,,,,pKi [1]: 2.30; mol incorporated per mol of enzyme ([2]; irreversible inhibition): 1 mol per mol of enzyme
C[C@H](NC(=O)[C@@H](Cc1ccccc1)NC(=O)CBr)C(=O)O [bromoacetyl-D-Phe-Ala],not an affinity label of NEP,,,,,,,
"C[C@H](CS)C(=O)N1CCC[C@H]1C(=O)O [captopril, HS--CH2 --CH(CH3)--CO--Pro]",,without effect,neither thiorphan nor captopril affect the growth,,,,,
O=C(O)CCNC(=O)[C@H](Cc1ccccc1)NC(Cc1ccccc1)C(=O)O (stereo partly drawn) [carboxyphenylethyl-Phe-β-Ala],,,,the cells grow,cell growth was inhibited; also recorded: inhibit cell growth,cell growth was inhibited; also recorded: inhibit cell growth,just as effectively inhibited in the conditioned media as in the fresh media,
CC(C)C[C@H](NP(=O)(O)O[C@@H]1O[C@@H](C)[C@H](O)[C@@H](O)[C@H]1O)C(=O)N[C@@H](Cc1c[nH]c2ccccc12)C(=O)O [phosphoramidon],,,,the cells grow,cell growth was inhibited; also recorded: inhibit cell growth,cell growth was inhibited; also recorded: inhibit cell growth,just as effectively inhibited in the conditioned media as in the fresh media,"duration of inhibition of cell growth at higher inhibitor concentration ([3]; 10 μM): growth is inhibited during the entire course of the experiment; growth of Nalm-6 cells in dialyzed conditioned media ([3]; conditioned media dialyzed against fresh media, cut-off 14,000): cell growth was once again inhibited; effect on L3 myoblast cell line (formation of myotubules) (L3 myoblast cell line): unaffected"
"O=C(O)CNC(=O)C(CS)Cc1ccccc1 (stereo not shown) [thiorphan, HS--CH2 --CH(CH2 --.phi.)--CO--Gly]",,inhibits the growth,neither thiorphan nor captopril affect the growth,,,,,
